Source: patent US6172102A, “Pyrrole derivatives and medicinal composition” (Nippon Shinyaku Co., Ltd., priority 1995, dated 2001)

System: urinary bladder
Experiment: Cystometrography (rats): bladder capacity after intraduodenal administration
Assay type: in vivo
Settings: female SD rats, urethane anesthesia, max of 0.5, 1, 2, 3 h, mean
Experimental: Cystometrography is a method for ascertaining the relation between intravesical pressure and bladder capacity and provides information on the time course of condition of the urinary bladder from urine filling to micturition, the possible involuntary contraction of the urinary bladder, and the contractility of the detrusor muscle during micturition.
The experiment was performed using 9 to 13-weeks old female SD rats in groups of 3-5. After a median incision was made in the abdominal region under urethane anesthesia, a polyethylene indwelling cannula was inserted into the urinary bladder dome through the apex of the urinary bladder and fixed. The other end of the cannula was connected to a T-tube for infusion of saline via one branch and changes in intravesical pressure were recorded via the other branch. When warmed saline was continuously infused into the urinary bladder at a constant rate, the urinary bladder was distended and, when the pressure reached a threshold, the urinary bladder underwent rapid contractions and at the same time a micturition was induced. This procedure was repeated until the volume of saline from the start of infusion to the threshold intravesical pressure (bladder capacity) became steady giving approximately constant values in at least two consecutive determinations. Then, the test compound was administered into the duodenum. The bladder capacity was measured immediately before administration of the test compound and 0.5, 1, 2, and 3 hours after administration. The maximum increase rate (%) in bladder capacity was calculated by means of the following equation.
Maximum increase rate in bladder capacity=[(A-B)/B]×100
where B represents the bladder capacity value immediately before administration of the test compound and A represents the maximum bladder capacity at 0.5, 1, 2, and 3 hours after administration of the test compound. The data shown are mean values.

CCCOC(C(=O)OC1CCN(C)CC1)(c1ccccc1)c1ccccc1 [Propiverine, propiverine, reference compound]
Maximum increase rate (%) in bladder capacity (100 mg/kg): 42.0%

Cc1c(-c2ccccc2)[nH]c(N)c1C#N [R1, 2-Amino-3-cyano-4-methyl-5-phenylpyrrole, reference compound]
Maximum increase rate (%) in bladder capacity (3 mg/kg): 63.6%

Cc1c(-c2ccccc2F)[nH]c(N)c1C#N [compound 1, 2-Amino-3-cyano-4-methyl-5-(2-fluorophenyl)pyrrole]
Maximum increase rate (%) in bladder capacity (3 mg/kg): 60.8%

Cc1c(-c2cccnc2)[nH]c(N)c1C#N [compound 8, 2-Amino-3-cyano-4-methyl-5-(3-pyridyl)pyrrole]
Maximum increase rate (%) in bladder capacity (30 mg/kg): 55.4%

N#Cc1cc(-c2ccccc2)[nH]c1N [compound 15]
Maximum increase rate (%) in bladder capacity (10 mg/kg): 53.8%

N#Cc1cc(-c2ccc(F)cc2)[nH]c1N [compound 41]
Maximum increase rate (%) in bladder capacity (10 mg/kg): 38.8%

Cc1c(-c2cc(F)ccc2F)[nH]c(N)c1C#N [compound 63, 2-Amino-3-cyano-4-methyl-5-(2,5-difluorophenyl)pyrrole]
Maximum increase rate (%) in bladder capacity (3 mg/kg): 49.9%
